Reference: patent publication US20230112641A1, “METHODS OF TREATING DIARRHEA OR INFLAMMATORY CONDITIONS OF THE GUT” (ABBOTT LABORATORIES, priority 2020, published 2023)

Target: T1, human GPR109A (Homo sapiens, UniProt Q8TDS4)
T1 construct: expressed in transfected cells
Experiment: Intracellular cAMP levels in forskolin-treated GPR109A-expressing colonic cells, measured by fluorescence (cAMP-Glo Assay)
Assay type: cell-based
Settings: cAMP reduction in forskolin-treated cells; read-out: EC50 to activate the GPR109A receptors
Text: The activity of GI-coupled receptors like GPR109A is normally assessed by showing a reduction in cellular levels of cAMP in forskolin-treated cells. This is normally done using the commercially available kit, cAMP-Glo™ Assay. […] When a GI-coupled receptor is activated in forskolin-treated cells, cAMP levels will go up.

T1 sequence (Q8TDS4 whole entry): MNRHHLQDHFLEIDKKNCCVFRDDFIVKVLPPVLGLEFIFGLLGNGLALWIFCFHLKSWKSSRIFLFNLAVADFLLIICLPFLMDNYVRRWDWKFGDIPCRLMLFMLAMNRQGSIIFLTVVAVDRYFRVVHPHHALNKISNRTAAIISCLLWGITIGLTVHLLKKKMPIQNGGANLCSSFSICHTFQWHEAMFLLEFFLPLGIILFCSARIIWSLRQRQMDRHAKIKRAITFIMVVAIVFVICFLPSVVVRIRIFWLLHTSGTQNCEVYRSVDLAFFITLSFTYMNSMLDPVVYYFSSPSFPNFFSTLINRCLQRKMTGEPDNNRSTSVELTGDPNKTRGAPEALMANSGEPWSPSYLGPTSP

- EC50: 250 to 2500 µM
Compound: CC(C)(O)CC(=O)O [HMB, beta-hydroxy-beta-methylbutyrate]
